Experiment [1] concerns the target T1, Fibroblast growth factor receptor 1 (Homo sapiens, UniProt P11362). The experiment can be described thus: Inhibition of human recombinant FGFR1 using Poly (Glu, Tyr)4:1 as substrate at 10 nM incubated for 90 mins in presence of ATP by ELISA based spectrophotometer assay.
Target sequence in this assay (P11362 22-822 limits assumed): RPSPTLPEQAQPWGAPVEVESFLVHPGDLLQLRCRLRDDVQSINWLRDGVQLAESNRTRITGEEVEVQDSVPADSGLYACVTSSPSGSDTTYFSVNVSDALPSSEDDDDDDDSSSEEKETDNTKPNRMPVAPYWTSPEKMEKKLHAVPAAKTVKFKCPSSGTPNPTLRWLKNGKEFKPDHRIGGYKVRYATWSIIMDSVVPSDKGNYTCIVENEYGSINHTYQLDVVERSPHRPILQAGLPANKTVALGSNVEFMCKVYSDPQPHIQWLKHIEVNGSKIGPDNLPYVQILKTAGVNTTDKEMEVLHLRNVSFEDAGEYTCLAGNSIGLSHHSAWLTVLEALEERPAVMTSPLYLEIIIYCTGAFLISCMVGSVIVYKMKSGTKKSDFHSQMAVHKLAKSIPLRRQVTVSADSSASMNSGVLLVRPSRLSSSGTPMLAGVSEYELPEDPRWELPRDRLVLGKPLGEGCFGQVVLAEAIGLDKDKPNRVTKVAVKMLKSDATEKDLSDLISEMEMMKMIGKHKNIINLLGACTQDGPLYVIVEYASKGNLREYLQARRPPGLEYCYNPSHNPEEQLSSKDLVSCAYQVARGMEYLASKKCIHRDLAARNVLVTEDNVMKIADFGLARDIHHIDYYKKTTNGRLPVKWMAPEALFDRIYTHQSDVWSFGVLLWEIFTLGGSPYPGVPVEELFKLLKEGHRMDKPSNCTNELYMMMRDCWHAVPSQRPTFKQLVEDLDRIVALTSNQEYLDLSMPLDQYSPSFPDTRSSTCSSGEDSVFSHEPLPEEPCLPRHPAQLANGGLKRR
Experiment [2] deals with T1, Fibroblast growth factor receptor 1. The experiment can be described thus: Inhibition of FGFR1 (unknown origin) in presence of ATP by caliper mobility shift assay.
Target sequence in this assay (P11362 whole entry): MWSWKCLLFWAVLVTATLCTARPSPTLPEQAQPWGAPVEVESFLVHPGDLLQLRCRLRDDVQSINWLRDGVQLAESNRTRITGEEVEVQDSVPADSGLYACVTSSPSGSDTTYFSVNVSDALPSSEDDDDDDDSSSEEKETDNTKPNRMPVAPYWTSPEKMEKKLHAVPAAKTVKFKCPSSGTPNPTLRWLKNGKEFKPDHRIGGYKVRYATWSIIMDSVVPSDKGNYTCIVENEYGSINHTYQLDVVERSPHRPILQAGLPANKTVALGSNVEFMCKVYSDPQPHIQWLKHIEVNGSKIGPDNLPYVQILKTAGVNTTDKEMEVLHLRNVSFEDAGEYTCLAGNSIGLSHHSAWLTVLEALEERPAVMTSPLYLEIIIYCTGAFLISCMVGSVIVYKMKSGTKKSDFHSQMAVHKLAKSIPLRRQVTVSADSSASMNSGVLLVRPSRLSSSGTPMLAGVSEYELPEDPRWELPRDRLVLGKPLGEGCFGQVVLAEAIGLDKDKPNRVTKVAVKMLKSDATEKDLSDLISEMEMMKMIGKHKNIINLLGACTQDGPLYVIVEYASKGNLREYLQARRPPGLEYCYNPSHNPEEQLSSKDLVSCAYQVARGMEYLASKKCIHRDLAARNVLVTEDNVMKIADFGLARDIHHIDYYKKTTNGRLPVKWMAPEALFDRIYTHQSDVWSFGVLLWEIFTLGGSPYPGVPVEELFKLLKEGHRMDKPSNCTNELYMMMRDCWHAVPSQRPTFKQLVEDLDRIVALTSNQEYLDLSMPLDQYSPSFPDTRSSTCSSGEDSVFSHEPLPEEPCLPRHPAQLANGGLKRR
Another experiment has as its system NCI-H1581. The experiment can be described thus: Antiproliferative activity against human NCI-H1581 cells assessed as inhibition of cell growth incubated for 72 hrs by MTT colorimetric assay. Format: functional, cell-based. As to conditions: NCI-H1581, 72 h.
The next experiment has as its system KG-1. The experiment in a line: Antiproliferative activity against human KG-1 cells assessed as inhibition of cell growth incubated for 72 hrs by MTT colorimetric assay. Format: functional, cell-based. As to conditions: KG-1, 72 h. (Tetrazolium dyes change colour on reduction, which living cells bring about.)
The nature of experiment [3]: Antiproliferative activity against human KATO III stomach cancer cell line assessed as inhibition of cell growth incubated for 72 hrs by MTT colorimetric assay. Format: functional, cell-based.
For another experiment, the system named is SNU-16. The experiment in a line: Antiproliferative activity against human SNU-16 cells assessed as inhibition of cell growth incubated for 72 hrs by MTT colorimetric assay. Format: functional, cell-based. The note with it: SNU-16, 72 h.
The next experiment concerns RT-112. The experiment can be described thus: Antiproliferative activity against human RT-112 cells assessed as inhibition of cell growth incubated for 72 hrs by MTT colorimetric assay. It counts as functional, cell-based. As to conditions: RT-112, 72 h.
In experiment [4] the target is Tyrosine-protein kinase BTK (Homo sapiens, UniProt Q06187). The experiment in a line: Inhibition of human BTK (382 to 659 residues) expressed in baculovirus infected Sf21 insect cells preincubated for 15 mins followed by ATP addition and measured upto 180 mins by microfluidic capillary electrophoresis analysis.
The target of experiment [5] is Fibroblast growth factor receptor (Homo sapiens, UniProt P22607+P11362+P22455+P21802). The experiment in a line: Inhibition of FGFR (unknown origin) using […] incubated for 60 mins by Kinase-Glo Plus luminescence assay. It counts as protein assay.

Each structure is given as a SMILES string. A value given as a limit tells only on which side of the number the result lay.

Consider seven compounds from ChEMBL document CHEMBL5233212, “Recent advance in the development of novel, selective and potent FGFR inhibitors” (Eur J Med Chem, 2020).

In general, inhibition refers to the share of the control response that was lost under treatment. One may read the IC50 as the concentration at which inhibition is half-maximal.

Chain of Tyrosine-protein kinase BTK (Q06187 whole entry, the tested form may be a part): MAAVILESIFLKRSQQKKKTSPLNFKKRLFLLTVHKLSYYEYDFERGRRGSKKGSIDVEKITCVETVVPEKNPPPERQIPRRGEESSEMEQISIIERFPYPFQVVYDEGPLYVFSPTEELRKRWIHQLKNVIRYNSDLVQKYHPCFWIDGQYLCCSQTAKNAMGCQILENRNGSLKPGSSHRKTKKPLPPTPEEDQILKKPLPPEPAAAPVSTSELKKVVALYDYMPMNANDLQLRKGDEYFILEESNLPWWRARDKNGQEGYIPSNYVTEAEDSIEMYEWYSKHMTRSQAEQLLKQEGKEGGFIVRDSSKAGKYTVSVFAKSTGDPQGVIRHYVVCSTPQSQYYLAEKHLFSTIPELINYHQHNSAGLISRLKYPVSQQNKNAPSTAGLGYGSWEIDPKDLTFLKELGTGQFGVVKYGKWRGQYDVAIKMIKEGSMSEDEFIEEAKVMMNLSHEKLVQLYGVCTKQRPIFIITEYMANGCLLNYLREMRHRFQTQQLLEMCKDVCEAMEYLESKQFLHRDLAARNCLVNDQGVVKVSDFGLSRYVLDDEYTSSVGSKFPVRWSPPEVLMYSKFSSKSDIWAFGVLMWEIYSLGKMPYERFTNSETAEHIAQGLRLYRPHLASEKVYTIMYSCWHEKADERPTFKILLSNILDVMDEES

Consider `Cn1cc(-c2cnc3cnn(S(=O)(=O)c4ccccc4)c3n2)cn1`, for which the inhibition in [1] is above 90%.
For `O=S(=O)(c1cn(CCF)cn1)n1ncc2ncc(-c3cn[nH]c3)nc21`, the inhibition in experiment [1] was 93.3%.
In the case of `CCC(=O)Oc1ccc(/C=C2\CC/C(=C\c3ccc(OC(=O)CC)c(OC)c3)C2=O)cc1OC`, the IC50 in experiment [2] is 3000 nM.
Take `Cc1n[nH]c2ccc(-c3cc(N[C@@H](CO)c4ccccc4)cnc3-c3cc(F)ccc3O)cc12`: the IC50 in the experiment with NCI-H1581 worked out at 391 nM; with KG-1, 14.5 nM; in [3] it was 156 nM; with SNU-16, 24.8 nM; in the experiment on RT-112, 122 nM.
Turning to `CNc1ncc2cc(-c3cc(OC)cc(OC)c3Cl)c(=O)n(CCc3ccc(NC(=O)/C(C#N)=C/C(C)(C)N)cc3)c2n1`, in experiment [4], the midpoint of inhibition, the IC50, lay at 0.5 nM.
Consider `COc1cc(/C=C2\CC/C(=C\c3ccc(OC(=O)C(C)C)c(OC)c3)C2=O)ccc1OC(=O)C(C)C`, for which the IC50 in experiment [2] was 2600 nM.
For the compound `Cc1nc(OCC(=O)N/N=C/c2ccc(Cl)cc2)c2c(C)nn(-c3ccccc3)c2n1`, the IC50 in [5] worked out at 9.59 µM.
